Patent publication US20040166079A1, “N-Lauroyl amino acid composition for slimming the human body” (priority 2003, published 2004)
Values belong to the compound of their own block, whether it stands above or below them.

Tests used:
[1] = target: T1, α2-adrenergic receptors (Homo sapiens, UniProt P08913); assay: Involvement of α2-adrenergic receptors in lipolytic activity: fatty acid assay in human adipocytes with brimonidine; assay type: cell-based
T1 construct: adrenergic receptors found at the surface of the adipocytes; endogenous in cells; host or cells: human adipocytes from subcutaneous abdominal adipose tissue of women
T1 sequence (P08913 1-465): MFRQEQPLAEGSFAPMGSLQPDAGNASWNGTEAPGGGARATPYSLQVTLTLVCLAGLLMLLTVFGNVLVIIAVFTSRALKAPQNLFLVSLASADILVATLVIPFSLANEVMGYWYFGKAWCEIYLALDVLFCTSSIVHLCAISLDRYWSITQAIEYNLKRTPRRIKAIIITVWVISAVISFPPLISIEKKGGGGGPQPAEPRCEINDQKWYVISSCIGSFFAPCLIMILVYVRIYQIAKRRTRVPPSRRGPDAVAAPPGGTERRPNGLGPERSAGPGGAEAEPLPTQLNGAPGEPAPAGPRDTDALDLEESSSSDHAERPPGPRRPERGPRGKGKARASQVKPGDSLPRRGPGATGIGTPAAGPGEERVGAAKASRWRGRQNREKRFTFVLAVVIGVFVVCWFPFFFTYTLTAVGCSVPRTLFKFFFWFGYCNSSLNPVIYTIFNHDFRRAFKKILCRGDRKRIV
Source text: It involves determining, in an “in vitro” model of isolated human adipocytes, the involvement of the α2- and/or β-adrenergic receptors on the lipolytic activity of the test product. Lipolysis is indeed under the control of the adrenergic receptors found at the surface of the adipocytes. Two types of receptors coexist:
A lipolytic product can call into play these receptors either by stimulating the β-adrenergic receptors (agonist), or by inhibiting the α2-adrenergic receptors (antagonist). The method described consists in incubating the product in the presence of human adipocytes in suspension, followed by the measurement of the lipolytic activity by assaying fatty acids. The adipocytes are incubated in the presence of pharmacological agents, α2-adrenergic agonists or β-adrenergic antagonists, known to inhibit lipolysis. The trial consists in studying the effect of the product on the inhibition of lipolysis induced by these pharmacological agents.
The test is carried out using human adipocytes isolated and prepared as a cellular suspension. The adipocytes are isolated from the subcutaneous abdominal adipose tissue recovered during plastic surgery operations (abdominal plastic surgery operations) performed on women. The cells are isolated from fresh tissue. To isolate the cells, the adipose tissue is isolated and dissociated by the action of a collagenase (SIGMA™, 1 mg/ml, 30 minutes at 37° C., gentle stirring). Collagenase digests the connective tissue present in the adipose tissue. […]
The product is incubated with the cells in suspension for two hours at 37° C. (250 μl of product+250 μl of adipocyte suspension). in the presence of an α2-adrenergic agonist: brimonidine at 10^−9 M (concentration previously determined to inhibit basal lipolysis by about 50%), and The supernatant media are collected. […]

[2] = test system: β-adrenergic receptors; assay: Involvement of β-adrenergic receptors in lipolytic activity: fatty acid assay in human adipocytes with propranolol; assay type: cell-based
Method: The supernatant media are collected. The nonesterified fatty acids are assayed by spectrophotometry with the aid of a commercial kit in these supernatant media (NEFA C kit, WAKO). The assay is performed against a fatty acid calibration series.
for the inhibition induced by the β-adrenergic antagonist, by the use of a β-adrenergic agonist, isoprenaline.

[3] = target: T2, human recombinant MMP-2 (Homo sapiens, UniProt P08253); assay: Measurement of the activity of metalloproteinase MMP-2 (DQ-gelatin fluorescence); assay type: biochemical; conditions: incubation concentration 0.0018 % DE; relative to the control
T2 construct: purchased CALBIOCHEM PF023
T2 sequence (P08253 110-660): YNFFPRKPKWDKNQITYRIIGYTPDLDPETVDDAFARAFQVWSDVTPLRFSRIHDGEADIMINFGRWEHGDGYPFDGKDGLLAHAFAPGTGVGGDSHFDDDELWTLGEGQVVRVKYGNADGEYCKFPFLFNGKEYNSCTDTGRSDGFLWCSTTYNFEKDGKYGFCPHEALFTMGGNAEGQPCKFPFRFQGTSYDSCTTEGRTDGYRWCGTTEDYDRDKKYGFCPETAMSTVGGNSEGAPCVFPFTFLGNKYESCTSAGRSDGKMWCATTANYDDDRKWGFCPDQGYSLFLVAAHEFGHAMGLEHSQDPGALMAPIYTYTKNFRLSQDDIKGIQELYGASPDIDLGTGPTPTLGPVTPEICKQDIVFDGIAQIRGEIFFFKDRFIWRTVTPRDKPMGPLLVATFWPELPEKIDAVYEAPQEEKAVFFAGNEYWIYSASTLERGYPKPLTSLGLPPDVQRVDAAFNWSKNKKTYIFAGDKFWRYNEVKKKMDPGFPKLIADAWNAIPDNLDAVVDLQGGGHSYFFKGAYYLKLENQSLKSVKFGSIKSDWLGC
Method: (§1) The objective of this test is to evaluate the inhibitory capacity of a product on the enzymatic activity of MMP-2 and MMP-9. This test is based on an enzymatic reaction between purified MMP-2 or MMP-9 and a specific substrate containing a chromophore. The degradation of the chromogenic substrate by the enzyme leads to the production of fluorescence monitored by fluorimetry.
(§2) (ii)—A human recombinant MMP-2 (CALBIOCHEM, PF023) is incubated, at 0.1 μg/ml, in the presence of the product and the chromogenic substrate, DQ-gelatin conjugated with fluorescein (MOLECULAR PROBE, D12054) at 10 μg/ml. The reaction mixture is incubated overnight at room temperature, protected from light. The quantity of DQ-gelatin degraded is measured by fluorescence (Ex: 355 nm; Em: 460 nm).
(§3) The reactivity of the enzymatic system is systematically monitored for the measurement of the effect of a metalloproteinase inhibitor, 1,10-phenanthroline. The results are presented in the following table, as a percentage inhibition of the enzymatic activity of MMP-2 and MMP-9 relative to the control.

[4] = target: T3, human recombinant MMP-9 (Homo sapiens, UniProt P14780); assay: Measurement of the activity of metalloproteinase MMP-9 (DQ-gelatin fluorescence); assay type: biochemical; conditions: incubation concentration 0.0018 % DE; relative to the control
T3 construct: purchased CALBIOCHEM PF024
Method: as §1
as §2, with “(i)—A” for “(ii)—A”, “MMP-9” for “MMP-2”, “PF024)” for “PF023)”, “0.05” for “0.1”
as §3

[5] = test system: human adipocytes; assay: Assay of the free fatty acids (lipolytic activity) in isolated human adipocytes in suspension; assay type: cell-based; conditions: for Free fatty acid concentration: 2 h at 37° C., mean of five assays
Source text: Hydrolysis of the triglycerides to nonesterified fatty acids and glycerol is called lipolysis. Triglycerides are stored in the adipocytes and constitute the fat reserve. For this reserve to diminish, which is the desired aim when slimming products are used, the triglycerides should be hydrolysed in the form of fatty acids, which in their case can be removed from the cell. Hydrolysis of the triglycerides calls into play a hormone-dependent lipase which must be phosphorylated in order to be active. The phosphorylation step uses a kinase and cAMP. An increase in the cAMP content of the adipocytes is necessary for promoting the activity of the lipase and therefore the lipolysis. The method described consists in incubating the products in the presence of human adipocytes in suspension, followed by […].
The test is carried out using human adipocytes isolated and prepared as a cellular suspension. The adipocytes are isolated from the subcutaneous abdominal adipose tissue recovered during plastic surgery operations (abdominal plastic surgery operations) performed on women. The cells are isolated from fresh tissue. The adipose tissue is isolated and dissociated by the action of a collagenase (SIGMA™, 1 mg/ml, 30 minutes at 37° C., gentle stirring). Collagenase digests the connective tissue present in the adipose tissue. After digestion, the cells are filtered and washed in an appropriate culture medium containing MEM medium free of phenol red, free of glutamine (SIGMA)+2.2 mg/ml of sodium bicarbonate (GIBCO)+50 IU of penicillin (BIOWHITTAKER™)+50 μg/ml of streptomycin (BIOWHITTAKER™)+1% (v/v) of L-glutamine (BIOWHITTAKER™)+0.5% of lipid-free serum albumin (SIGMA™). The adipocyte suspension is used immediately after its preparation.
The test products are diluted in the adipocyte culture medium. They are incubated with the cells in suspension for two hours at 37° C. (250 μl of product+250 μl of adipocyte suspension).
After the incubation, the cell lysis is checked visually by the presence of a lipid layer at the surface of the cellular suspension. The supernatant media are collected. The free fatty acids are assayed by spectrophotometry using a commercial kit (NEFA™ C kit, WAKO), with reference to a fatty acid calibration series. The lypolytic activity of the products is evaluated relative to a control group incubated in the presence of adipocytes and in the absence of product. […] Five assays are performed for each of the test products which are as follows:
This assay is repeated by carrying out new assays at different concentrations.

[6] = target: T4, hyaluronidase (SIGMA), purified from bovine testicles (Bos taurus, UniProt Q2YDK3); assay: Measurement of the activity of hyaluronidase (purified enzyme); assay type: biochemical; conditions: hyaluronidase test, 60 minutes at 37° C.
T4 construct: purified from bovine testicles; purchased SIGMA; host or cells: bovine testicles
T4 sequence (Q2YDK3 36-553): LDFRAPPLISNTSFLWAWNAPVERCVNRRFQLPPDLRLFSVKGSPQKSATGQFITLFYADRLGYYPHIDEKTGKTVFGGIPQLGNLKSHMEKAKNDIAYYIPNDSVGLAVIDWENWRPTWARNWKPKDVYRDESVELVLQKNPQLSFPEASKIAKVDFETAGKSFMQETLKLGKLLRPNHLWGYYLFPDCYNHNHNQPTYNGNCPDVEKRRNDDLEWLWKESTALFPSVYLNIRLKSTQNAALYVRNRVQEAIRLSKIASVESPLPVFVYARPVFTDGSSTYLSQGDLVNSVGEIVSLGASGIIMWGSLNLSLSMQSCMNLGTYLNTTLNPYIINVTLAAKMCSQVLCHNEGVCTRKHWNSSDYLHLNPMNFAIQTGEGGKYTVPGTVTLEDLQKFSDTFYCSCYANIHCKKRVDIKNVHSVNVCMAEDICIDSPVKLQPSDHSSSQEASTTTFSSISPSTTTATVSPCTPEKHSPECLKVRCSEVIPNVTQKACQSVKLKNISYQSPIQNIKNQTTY
Method: The objective of this test is to measure the activity of hyaluronidase. This enzyme, which is naturally found in the skin, degrades hyaluronic acid. The study is carried out in vitro on the purified enzyme.
The hyaluronidase (SIGMA), purified from bovine testicles, is incubated at 0.01 U/ml in the presence of hyaluronic acid at 0.02 mg/ml, with or without test product. The incubation is carried out for 60 minutes at 37° C.
Evaluation of the effects: After the incubation, the hyaluronic acid not degraded by the enzyme is precipitated by a 24 mM sodium acetate/79. mM acetic acid mixture (10 minutes, room temperature). The precipitate is measured by spectrophotometry at 590 nm.
The effect of the test products is compared to that observed in the presence of dipotassium glycyrrhizinate, a reference hyaluronidase inhibitor.

[7] = incubation concentration 0.0001 wt % DE
[8] = incubation concentration 0.0010 wt % DE

T3 sequence (P14780 107-707 limits assumed): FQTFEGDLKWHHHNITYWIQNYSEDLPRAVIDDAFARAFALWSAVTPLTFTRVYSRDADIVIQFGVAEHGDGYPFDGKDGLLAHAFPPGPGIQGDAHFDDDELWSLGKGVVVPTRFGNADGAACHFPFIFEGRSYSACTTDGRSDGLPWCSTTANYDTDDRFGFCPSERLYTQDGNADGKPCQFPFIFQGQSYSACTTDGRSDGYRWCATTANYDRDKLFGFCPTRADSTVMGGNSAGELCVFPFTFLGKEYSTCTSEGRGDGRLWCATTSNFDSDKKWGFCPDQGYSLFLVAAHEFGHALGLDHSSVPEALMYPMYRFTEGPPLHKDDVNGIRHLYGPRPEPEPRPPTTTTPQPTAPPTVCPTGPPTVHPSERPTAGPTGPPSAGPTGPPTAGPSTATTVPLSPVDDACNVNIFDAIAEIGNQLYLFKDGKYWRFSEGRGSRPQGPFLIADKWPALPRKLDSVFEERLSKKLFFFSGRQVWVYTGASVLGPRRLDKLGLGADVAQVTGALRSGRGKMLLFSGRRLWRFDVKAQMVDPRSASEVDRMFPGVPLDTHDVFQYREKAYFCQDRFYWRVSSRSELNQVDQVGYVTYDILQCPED

Assay of the nonesterified fatty acids in the supernatant (% relative to the control) ([1]; 10^−7 M + brimonidine 10^−9 M): 79%
SMILES: Cc1ccc(N(CC2=NCCN2)c2cccc(O)c2)cc1 [Phentolamine, phentolamine]

SMILES: Brc1c(NC2=NCCN2)ccc2nccnc12 [Brimonidine, brimonidine]
Assay of the nonesterified fatty acids in the supernatant (% relative to the control) ([1]; 10^−9 M, alone): 0%
inhibition at 0.001 µM ([1]; read-out: inhibition of basal lipolysis): ~50%

Assay of the nonesterified fatty acids in the supernatant (% relative to the control) ([2]; 10^−7 M, alone): 86%
inhibition of basal lipolysis ([2]; at 10^−7 M, concentration previously determined): about 50%
SMILES: CC(C)NCC(O)COc1cccc2ccccc12 (centres unmarked) [Propanolol, propranolol]

SMILES: c1cnc2c(c1)ccc1cccnc12 [1,10-Phenanthroline, 1,10-phenanthroline]
MMP-2 inhibiting effect [3]: 25%
MMP-9 inhibiting effect [4]: 75%

SMILES: CC(C)NCC(O)c1ccc(O)c(O)c1 (centres unmarked) [Isoprenaline, isoprenaline]
Assay of the nonesterified fatty acids in the supernatant (% relative to the control) ([2]; 10^−5 M + propanolol 10^−7 M): 170%

SMILES: CCCCCCCCCCCC(=O)N(C)CC(=O)O [N-Lauroylsarcosine]
Free fatty acid concentration [5, 7]: 26.32 ± 0.68 µM
Lipolytic activity (compared with the control = 100) [5, 7]: 228
Free fatty acid concentration [5, 8]: 28.82 ± 6.11 µM
Lipolytic activity (compared with the control = 100) [5, 8]: 250

Percentage inhibition of hyaluronidase activity ([6]; incubation concentration 0.001 % DE): 20%
Percentage inhibition of hyaluronidase activity ([6]; incubation concentration 0.1 % DE): 45%
SMILES: CC1(C)[C@@H](O[C@H]2O[C@H](C(=O)[O-])[C@@H](O)[C@H](O)[C@H]2O[C@@H]2O[C@H](C(=O)[O-])[C@@H](O)[C@H](O)[C@H]2O)CC[C@]2(C)[C@H]3C(=O)C=C4[C@@H]5C[C@@](C)(C(=O)O)CC[C@]5(C)CC[C@@]4(C)[C@]3(C)CC[C@@H]12.[K+].[K+] [Di K glycyrrhizinate, dipotassium glycyrrhizinate]
